Experiments:
[1] = molecular target: T1, mPAO (Mus musculus, UniProt Q8C0L6); experiment: Steady-state kinetic spectrophotometric assay of mPAO (H2O2 formation); format: biochemical, murine
T1 construct: the full length cDNA of mpao was released by Nde I and Hind III treatment, and ligated into Nde I and Hind III sites of pET29c; made in house; host or cells: E. coli BL21 GOLD (DE3), plasmid pET-MPAO (pET29c)
Experimental: In this example the methods used to examine mPAO steady state kinetics are described. Spectrophotometric assays were done at 30° C. in a potassium phosphate buffer (e.g., 50 mM KH2PO4/KOH buffer, pH 7.6 saturated in air or in pure oxygen), using a published procedure which provides a continuous monitor of the H2O2 produced (Holt et al., Anal. Biochem. 244:384-392 [1997]). These assays were done in 1 mL cuvette with 0.8 mL of solution containing varying amounts of substrate, 1 mM vanillic acid, 0.5 mM 4-aminopyrine, 4 units of horseradish peroxidase, and 0.1-0.2 μg of mPAO. The reactions were monitored at 498 nm with a UVIKON 840 spectrophotometer (KONTRON Instruments) for the formation of the quinoneimine dye (ε498=4,650 M^−1cm^−1 at pH 7.6), the condensation product of vanillic acid and oxidized 4-aminopyrine. The latter is produced from 4-aminopyrine by the action of horseradish peroxidase that has been oxidized by H2O2 (Holt et al., supra [1997]). The assays were done at 25° C. by varying the concentration of the amine substrate, while the oxygen concentration in the assay solution was constant at the air-saturating level of 237 μM. The data were fit, by nonlinear regression to steady-state kinetic equations (McIntire et al., Biochem. J. 228:325-335 [1985]), which provided the values, and standard deviations thereof, for kcat′, KS′ and kcat′/KS′ (=Q, the specificity constant). [formula]
The dissociation constants, KD, for these and other amines were estimated in the following manner. It was assumed that the competition was competitive, since in the presence of the inhibitors, at a saturating N^1-acetyl-Spm concentration, the rate of the reaction was equal to the value of the true kcat. It was also assumed that the mechanism is of the ping-pong type. Thus, the applicable steady-state equation is (Segal, Enzyme Kinetics, John Wiley & Sons, New York, pp. 606-625 [1975]): [formula]
On the left, kcat and KS are the steady-state parameters for N^1-acetyl-Spm (S), and I and KI (=KD), represent the inhibitor and its inhibition constant, respectively. KIO and KO are the inhibition constant and Michaelis constant for O2, respectively. The equation can be converted to the expression on the right side when: [formula]
The expressions for kcat′ and KS′ (at the fixed [O2]=[…]) are the same as those when the inhibitor is absent. Since the values of kcat′ and KS″ were predetermined, inhibition assays were carried out where [S]≈KS″, which, in the absence of I, would give a rate, ν≈0.5×kcat″. In these assay, for each inhibitor, [I] was adjusted so the apparent rate was somewhat less then 0.5 kcat′. In this situation, after substitution and rearrangement, Equation 1 reduces to: [formula]
Since [I] and kcat′ are known, and ν is the measured rate in the presence of the inhibitor, the value of KI′ can be estimated. It is assumed that these apparent KI′ are good approximations of the true KI (=KD) values. […] The estimated KI′ values provided in Table 1, are the averages of these four values. If the reactions of the polyamine substrates and O2 with mPAO obeys a ping-pong type mechanism, the apparent values, kcat′/KS′, are equal to the true kcat/KS values.

[2] = molecular target: T1, mPAO; experiment: HPLC analysis of PAO oxidation products; format: biochemical, murine
From the text: In this example, methods are described for determining the nature of the products of substrate oxidation by PAO. In a solution at pH 7.6 containing catalase to destroy H2O2, mPAO and N^1-acetyl-Spm, at known concentrations, were allowed to react until the latter had been completely oxidized. mPAO and N^1-acetyl-Spd were similarly allowed to react. Both reactions solutions contained a known amount of N-(3-aminopropyl)-1,10-diaminodecane (Tocris Cookson) as an internal standard. […] Aliquots of these reaction mixtures were treated with dansyl chloride (5-dimethylamino-1-naphthalenesulfonyl chloride) obtained from Sigma. The resulting dansylated polyamine products from each reaction were analyzed by reverse-phase high-pressure liquid chromatography (HPLC) following established procedures (Hunter, Methods in Molecular Biology: Polyamine Protocols, Morgan (ed.) Human Press, Totowa, N.J., Vol. 79, Chapter 14, pp 119-123). […] Detection was accomplished with a Gilson Spetra/Glo fluorescence detector using a 7-51× excitation filter (330-400 nm) and a 3-72M emission filter (460-600 n m). […]
Aliquots of each of the above described enzyme-reaction solutions were treated with an equal volume of 2,4-dinitrophenylhydrazine (Acros Organics) solution (100 mg in 94 mL ethanol+6 mL of concentrated HCl). […] The 368-nm chromatograms were used for quantitative analyses.

T1 sequence (Q8C0L6 whole entry E184K/L285S/R416L/R417S/Q419R/E451A/V490I/S491G/V497A): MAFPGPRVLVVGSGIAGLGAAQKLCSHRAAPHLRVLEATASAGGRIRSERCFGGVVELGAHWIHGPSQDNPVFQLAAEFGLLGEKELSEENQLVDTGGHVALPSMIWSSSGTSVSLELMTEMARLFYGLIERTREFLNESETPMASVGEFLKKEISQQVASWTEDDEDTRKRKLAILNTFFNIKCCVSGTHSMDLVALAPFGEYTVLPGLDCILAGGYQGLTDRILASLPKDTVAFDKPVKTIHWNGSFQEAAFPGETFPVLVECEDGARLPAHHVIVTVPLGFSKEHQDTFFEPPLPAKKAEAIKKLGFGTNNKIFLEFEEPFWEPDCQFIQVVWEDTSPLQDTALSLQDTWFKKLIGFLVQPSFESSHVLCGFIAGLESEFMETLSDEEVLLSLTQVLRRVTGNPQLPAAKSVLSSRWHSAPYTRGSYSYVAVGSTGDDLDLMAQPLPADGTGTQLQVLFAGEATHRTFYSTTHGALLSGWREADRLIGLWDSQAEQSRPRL

CC(=O)NCCCNCCCCNCCCN [N^1-acetyl-Spm, N^1-acetyl-spermine]
kcat′ ([1]; apparent value, air-saturated 50 mM KH2PO4/KOH buffer pH 7.6, [O2] 237 μM): 4.53 ± 0.05 s⁻¹
KS′ ([1]; apparent value, air-saturated buffer pH 7.6, [O2] 237 μM): 1.78 ± 0.1 µM
substrate for mPAO (oxidation by mPAO) ([1]; in words): good mPAO substrates
kcat′/KS′ ([1]; specificity constant, air-saturated buffer pH 7.6): (2.54 ± 0.01) × 10^6 M^−1sec^−1
3-acetamidopropanal produced on complete oxidation by PAO ([2]; 2,4-dinitrophenylhydrazine HPLC): equivalent amount
polyamine product of complete PAO oxidation (Spd or putrescine) ([2]; pH 7.6, catalase present, dansyl chloride HPLC): stoichiometric amounts
